Consider 41 compounds from patent US20240360114A1 (SIRONAX LTD., priority 2021, published 2024).

SMILES strings stand for the structures.

The test system of one test is HT-1080 cells. Nature of the test: HT-1080 cell viability assay (ferroptosis induced by RSL3, Cell Titer-Glo). The conditions noted are these: Homo sapiens, HT-1080, 20 h, ferroptosis inducer RSL3, 20 hours, ferroptosis inhibitory activity, Table 2. The test is classed as cell-based. The essentials: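 Cells seeded overnight, then co-treated with RSL3 and compound (3-fold, 10-point dilution, top 1.1 μM) for 20 hours. Viability by CellTiter-Glo luminescence, normalized to untreated controls; EC50 from sigmoidal non-linear regression.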
By EC50 is commonly meant the midpoint of the concentration-response curve. As for `COC(=O)C1CCC(Nc2ccc(N3CCC(C(F)(F)F)CC3)cc2)CC1` (centres unmarked) [Compound 6A, methyl 4-((4-(4-(trifluoromethyl)piperidin-1-yl)phenyl)amino)cyclohexane-1-carboxylate], the EC50 was 0.1 to 100 nM.
Regarding `CC(C)(C)c1ccc(NCCOCCN)cc1` [Compound 224, N-(2-(2-aminoethoxy)ethyl)-4-(tert-butyl)aniline], the EC50 fell in the range of 100 to 1000 nM.
Same read-out and setting: under `NC1CCC(Nc2ccc(N3CCC(C(F)(F)F)CC3)cc2OCCO)CC1` (centres unmarked) [Compound 485, 2-(2-((4-aminocyclohexyl)amino)-5-(4-(trifluoromethyl)piperidin-1-yl)phenoxy) ethan-1-ol] stands 0.1 to 100 nM; under `CC(C)(C)c1ccc(NC2CCC(N)CC2)c(C#N)c1` (centres unmarked) [Compound 187, 2-((4-aminocyclohexyl)amino)-5-(tert-butyl)benzonitrile], 1000 to 10000 nM.
In turn, `CC[C@@H]1CN(c2ccc(NC3CC4(CC(N)C4)C3)c(C)n2)C[C@@H](C)O1` (stereo partly drawn) [Compound 547, N^2-(6-((2R,6R)-2-ethyl-6-methylmorpholino)-2-methylpyridin-3-yl)spiro[3.3]heptane-2,6-diamine] returned an EC50 of 0.1 to 100 nM.
As to `CCC(C)(C)c1ccc(NC2CCC(N)(CO)CC2)cc1` (centres unmarked) [Compound 296A, (1-amino-4-((4-(tert-pentyl)phenyl)amino)cyclohexyl)methanol], the EC50 was in the range of 0.1 to 100 nM.
On the same count and under the same terms, under `CC1(C)CCC(c2ccc(NC3CCN(C(=O)[C@H]4CNC(=O)N4)CC3)cc2)CC1` [Compound 154, (R)-4-(4-((4-(4,4-dimethylcyclohexyl)phenyl)amino)piperidine-1-carbonyl) imidazolidin-2-one] stands 100 to 1000 nM.
Compound `CC(C)(C)c1ccc(NC2CCC(N)(CN)CC2)cc1` (centres unmarked) [Compound 270, 1-(aminomethyl)-N4-(4-(tert-butyl)phenyl)cyclohexane-1,4-diamine] registered a half-maximal effective concentration (EC50) of 100 to 1000 nM.
The compound `CNCC1CCC(Nc2ccc(C(C)(C)C)cc2)CC1` (centres unmarked) [Compound 87, 4-(tert-butyl)-N-(4-((methylamino)methyl)cyclohexyl)aniline] yielded an EC50 of 0.1 to 100 nM.
Same read-out and setting: the result for `CC(C)C1CCN(c2ncc(NC3CCC(N)CC3)cn2)CC1` (centres unmarked) [Compound 34A, N1-(2-(4-isopropylpiperidin-1-yl)pyrimidin-5-yl)cyclohexane-1,4-diamine] reads 0.1 to 100 nM.
On the same count and under the same terms, the result for `Cc1nc(N2CC(C)OC(C)C2)ccc1NCC1CC2(CC(N)C2)C1` (centres unmarked) [Compound 512, N-((6-aminospiro [3.3]heptan-2-yl)methyl)-6-(2,6-dimethylmorpholino)-2-methylpyridin-3-amine] reads 0.1 to 100 nM; that for `CC(C)(C)c1ccc(NC2CCC(NCCCO)CC2)cc1` (centres unmarked) [Compound 317, 3-((4-((4-(tert-butyl)phenyl)amino)cyclohexyl)amino)propan-1-ol], 0.1 to 100 nM.
Still for that read-out and setting: the result for `CC(C)(C)c1ccc(NC2CCC(CCN)CC2)cc1` (single isomer, unassigned) [Compound 200A, N-(4-(2-aminoethyl)cyclohexyl)-4-(tert-butyl)aniline] reads 0.1 to 100 nM.
`CNCC1CCC(Nc2ccc(C(C)(C)C)cc2)C1` (centres unmarked) [Compound 263, 4-(tert-butyl)-N-(3-((methylamino)methyl)cyclopentyl)aniline] displayed a concentration for a half-maximal effect (EC50) of 100 to 1000 nM.
In turn, `Cc1nc(N2C[C@@H](C)N(CC(F)(F)F)[C@@H](C)C2)ccc1NC1CCC(N)C1` (stereo partly drawn) [Compound 541, N1-(6-((3R,5S)-3,5-dimethyl-4-(2,2,2-trifluoroethyl)piperazin-1-yl)-2-methylpyridin-3-yl)cyclopentane-1,3-diamine] showed an EC50 of 0.1 to 100 nM.
`CC(C)(C)c1ccc(NCCN2CCOCC2)cc1` [Compound 206, U4-(tert-butyl)-N-(2-morpholinoethyl)aniline] yielded an EC50 of 1000 to 10000 nM.
The compound `CC1(N)CCC(Nc2ccc3c(c2)CCCC3)CC1` (centres unmarked) [Compound 119, 1-methyl-N4-(5,6,7,8-tetrahydronaphthalen-2-yl)cyclohexane-1,4-diamine] registered an EC50 of 0.1 to 100 nM.
As for `CC(C)(C)c1ccc(NCC2CCC(CN)C2)cc1` (centres unmarked) [Compound 340, N-((3-(aminomethyl)cyclopentyl)methyl)-4-(tert-butyl)aniline], the EC50 lay in the range of 0.1 to 100 nM.
Same read-out and setting: under `Cc1nc(N2CCC(C(F)(F)F)CC2)ccc1NC1CCC(CNC(=O)C2CNC(=O)C2)CC1` (centres unmarked) [Compound 377, N-((4-((2-methyl-6-(4-(trifluoromethyl)piperidin-1-yl)pyridin-3-yl)amino)cyclohexyl)methyl)-5-oxopyrrolidine-3-carboxamide] stands 0.1 to 100 nM; under `Cc1cc(N2CCC(C)(C)CC2)ccc1NC1CCC(N)CC1` (centres unmarked) [Compound 381, N1-(4-(4,4-dimethylpiperidin-1-yl)-2-methylphenyl)cyclohexane-1,4-diamine], 0.1 to 100 nM.
Same read-out and setting: the result for `CC1(C)CCC(C)(C)c2cc(NC3CCC(N)CC3)ccc21` (centres unmarked) [Compound 265, N1-(5,5,8,8-tetramethyl-5,6,7,8-tetrahydronaphthalen-2-yl)cyclohexane-1,4-diamine] reads 0.1 to 100 nM; that for `NC1CCC(Nc2cccc3c2CCC3)CC1` (single isomer, unassigned) [Compound 191A, N1-(2,3-dihydro-1H-inden-4-yl)cyclohexane-1,4-diamine], 1000 to 10000 nM; that for `O=C1NC[C@H](C(=O)NCC2CCC(Nc3ccc(N4CCC(C(F)(F)F)CC4)cc3)CC2)N1` (stereo partly drawn) [Compound 18, (R)-2-oxo-N-((4-((4-(4-(trifluoromethyl)piperidin-1-yl)phenyl)amino)cyclohexyl)methyl)imidaz olidine-4-carboxamide], 0.1 to 100 nM.
`Cc1nc(N2C3CCC2COC3)ccc1NC1CC2(CC(N)C2)C1` (centres unmarked) [Compound 528, N2-(6-(3-oxa-8-azabicyclo[3.2.1]octan-8-yl)-2-methylpyridin-3-yl)spiro[3.3]heptane-2,6-diamine]: the EC50 lay within 100 to 1000 nM.
The same measure, in the same setting: the result for `NC1CCC(Nc2cccc3c2CCO3)CC1` (centres unmarked) [Compound 164, N1-(2,3-dihydrobenzofuran-4-yl)cyclohexane-1,4-diamine] reads 1000 to 10000 nM; that for `CC1(C)CCN(c2ncc(NC3C4CC5CC3CC(C(N)=O)(C5)C4)cn2)CC1` (centres unmarked) [Compound 410, 4-((2-(4,4-dimethylpiperidin-1-yl)pyrimidin-5-yl)amino)adamantane-1-carboxamide], 0.1 to 100 nM; that for `Cc1nc(NCC(F)(F)F)ccc1NC1CC2(CC(N)C2)C1` (centres unmarked) [Compound 557, N3-(6-aminospiro [3.3]heptan-2-yl)-6-methyl-N2-(2,2,2-trifluoroethyl)pyridine-2,5-diamine], 0.1 to 100 nM.
Still for that read-out and setting: the result for `Cc1cc(NC2CCC(CN)CC2)cc(C)c1C` (centres unmarked) [Compound 312, N-(4-(aminomethyl)cyclohexyl)-3,4,5-trimethylaniline] reads 0.1 to 100 nM.
Same read-out and setting: the result for `NC1CCC(Nc2ccc3nc(N4CCC(C(F)(F)F)CC4)cnc3c2)CC1` (centres unmarked) [Compound 573, N1-(2-(4-(trifluoromethyl)piperidin-1-yl)quinoxalin-6-yl)cyclohexane-1,4-diamine] reads 0.1 to 100 nM; that for `COc1cc(NC[C@H]2CC[C@H](N)CC2)ccc1N1C[C@@H](C)O[C@@H](C)C1` [Compound 495, N-(((1r,4R)-4-aminocyclohexyl)methyl)-4-((2S,6R)-2,6-dimethylmorpholino)-3-methoxyaniline], 100 to 1000 nM.
With `CN1CCC(Nc2ccc(N3CCC(C(F)(F)F)CC3)cc2)C1` (centres unmarked) [Compound 16, 1-methyl-N-(4-(4-(trifluoromethyl)piperidin-1-yl)phenyl)pyrrolidin-3-amine], the EC50 lay in the range of 0.1 to 100 nM.
For the compound `CC(C)(C)c1ccc(NC2CCc3nc(N)sc3C2)cc1` (centres unmarked) [Compound 204, 4-N-(4-(tert-butyl)phenyl)-4,5,6,7-tetrahydrobenzo[d]thiazole-2,6-diamine], the EC50 is 100 to 1000 nM.
`CC1CN(c2ccc3cc(NC4CC5(CC(N)C5)C4)ccc3n2)CC(C)N1C(=O)C(F)(F)F` (centres unmarked) [Compound 566]: the EC50 lay in the range of 0.1 to 100 nM.
`Cc1nc(N2CC(C)OC(C)C2)ccc1NC1CC2CCC1CC2N` (centres unmarked) [Compound 553, N2-(6-(2,6-dimethylmorpholino)-2-methylpyridin-3-yl)bicyclo[2.2.2]octane-2,5-diamine] had a concentration giving a half-maximal response (EC50) of 100 to 1000 nM.

The same test, now with this note: Homo sapiens, HT-1080, 20 h, ferroptosis inducer RSL3, 20 hours, ferroptosis inhibitory activity, Table 3.
In turn, `Cc1nc(N2CC[Si](C)(C)CC2)c(F)cc1NC1CC2(CC(N)C2)C1` (centres unmarked) [Compound 638, N^2-(6-(4,4-dimethyl-1,4-azasilinan-1-yl)-5-fluoro-2-methylpyridin-3-yl)spiro[3.3]heptane-2,6-diamine] showed an EC50 of 0.1 to 100 nM.
Same read-out and setting: under `Cc1cc(NC2CC3(CC(N)C3)C2)ccc1N1CCN(CC(F)(F)F)CC1` (centres unmarked) [Compound 574, N^2-(3-methyl-4-(4-(2,2,2-trifluoroethyl)piperazin-1-yl)phenyl)spiro/3.3/heptane-2.6-diamine] stands 0.1 to 100 nM; under `NC(=O)C1CC2(CC(Nc3ccc4cc(N5CCC(C(F)(F)F)CC5)ccc4c3)C2)C1` (centres unmarked) [Compound 584, 6-((6-(4-(trifluoromethyl)piperidin-1-yl)naphthalen-2-yl)amino)spiro[3.3]heptane-2-carboxamide], 0.1 to 100 nM.
Turning to `CC[C@@H]1CN(c2ccc(NC3CC(N)C3)c(C)n2)C[C@H](CC)O1` (stereo partly drawn) [Compound 576, N1-(6-((2S,6R)-2,6-diethylmorpholino)-2-methylpyridin-3-yl)cyclobutane-1,3-diamine], the EC50 fell in the range of 0.1 to 100 nM.
`CNC1CC2(C1)CC(Nc1ccc(N3C[C@@H](C)O[C@@H](C)C3)nc1C)C2` (stereo partly drawn) [Compound 605, N^2-(6-((2R,6S)-2,6-dimethylmorpholino)-2-methylpyridin-3-yl)-N^6-methylspiro [3.3]heptane-2,6-diamine] displayed an EC50 of 0.1 to 100 nM.

The same test, now with this note: Homo sapiens, ferroptosis inducer RSL3, 20 hours, ferroptosis inhibitory activity, Table 2.
For `CC(C)(C)c1ccc(NC2CCN(S(N)(=O)=O)CC2)cc1` [Compound 180, 4-((4-(tert-butyl)phenyl)amino)piperidine-1-sulfonamide], the EC50 lay within 100 to 1000 nM.
In turn, `CN1CCC(N2CCC(Nc3ccc(C4CCC(C)(C)CC4)cc3)CC2)CC1` [Compound 100, N-(4-(4,4-dimethylcyclohexyl)phenyl)-1′-methyl-[1,4′-bipiperidin]-4-amine] showed an EC50 of 100 to 1000 nM.
